For data set [1], the system named is hepatic Ugt1a6 protein. The experiment in a line: Hepatic protein expression by Western blotting. The following applies: 2.56 nmol/kg/day i.p. for 4 days, n = 5, p = 0.5192. It counts as in vivo, rat. As for the experimental part: (§1) Male Sprague-Dawley (SD) rats (8 weeks, 260–280 g) were purchased from Nara Biotech Co. (Seoul, Korea). […] The dosing solution for the control group was prepared but the 1,25(OH)2D3 was omitted. […] On the fifth day, rats were used for pharmacokinetic study.

The subject of data set [2] is hepatic Ugt1a7 mRNA. The data set is described as follows: Hepatic mRNA expression by qPCR. In kind it is in vivo, rat. The following applies: 2.56 nmol/kg/day i.p. for 4 days, n = 4-5. The method, then:
as §1
(§2) Collected livers were frozen immediately with liquid nitrogen and stored at −80 °C. Trizol reagent in RNAiso Plus (Takara Bio, Inc., Shiga, Japan) was used to extract RNA from 100-mg tissue homogenates according to the manufacturer’s protocol. After purities and total RNA concentrations extracted from liver samples were determined at a wavelength of 260/280 nm with a Nanodrop 2000c spectrophotometer (Thermo Scientific, Waltham, MA, USA), synthesis of cDNA was processed from 1 μg of total RNA using the following conditions: incubation at 50 °C for 1 h, inactivation at 95 °C for 5 min, and cooling to 4 °C. The synthesized cDNA was then subjected to qPCR assays using SYBR® Premix Ex TagTM on Stratagene Mx3005P (Agilent Technologies, Boblingen, Germany) using the following conditions: 95 °C for 10 min and 40 cycles of 95 °C for 15 s and 55 °C for 30 s. A “Comparative Quantitation” mode was selected, and fold expressions were calculated using the delta-delta method 2^−(△△Ct). GAPDH was used as the internal reference gene for normalization. The forward and reverse primers used for qPCR analysis are listed in Supplementary Table S1 [2, 25, 28, 29].

Data set [3] deals with hepatic Ugt1a6 mRNA. The data set is described as follows: Hepatic mRNA expression by qPCR. In kind it is in vivo, rat. The following applies: 2.56 nmol/kg/day i.p. for 4 days, n = 4-5. As for the experimental part:
as §1, §2

Data set [4] concerns hepatic Ugt2b1 mRNA. The data set is described as follows: Hepatic mRNA expression by qPCR. In kind it is in vivo, rat. The following applies: 2.56 nmol/kg/day i.p. for 4 days, n = 4-5. The method, then:
as §1, §2

In data set [5] the test system is hepatic Ugt2b3 mRNA. The experiment in a line: Hepatic mRNA expression by qPCR. In kind it is in vivo, rat. To be noted: 2.56 nmol/kg/day i.p. for 4 days, n = 4-5. As for the experimental part:
as §1, §2

For data set [6], the system named is hepatic Cyp2c6 mRNA. The experiment in a line: Hepatic mRNA expression by qPCR. In kind it is in vivo, rat. To be noted: 2.56 nmol/kg/day i.p. for 4 days, n = 4-5. As for the experimental part: as §1, §2
The subject of data set [7] is hepatic Ugt1a8 mRNA. The experiment in a line: Hepatic mRNA expression by qPCR. In kind it is in vivo, rat. To be noted: 2.56 nmol/kg/day i.p. for 4 days, n = 4-5. The method, then:
as §1, §2

The test system of data set [8] is hepatic Cyp2c11 mRNA. The experiment in a line: Hepatic mRNA expression by qPCR. To be noted: 2.56 nmol/kg/day i.p. for 4 days, n = 4-5, p = 0.001. It counts as in vivo, rat. As for the experimental part: as §1, §2
Data set [9] deals with hepatic Cyp1a2 mRNA. The data set is described as follows: Hepatic mRNA expression by qPCR. In kind it is in vivo, rat. To be noted: 2.56 nmol/kg/day i.p. for 4 days, n = 4-5. The method, then: as §1, §2
Data set [10] deals with hepatic Cyp2b1 mRNA. The experiment in a line: Hepatic mRNA expression by qPCR. In kind it is in vivo, rat. The following applies: 2.56 nmol/kg/day i.p. for 4 days, n = 4-5, p = 0.006. As for the experimental part: as §1, §2
In data set [11] the test system is hepatic Ugt1a1 mRNA. The experiment in a line: Hepatic mRNA expression by qPCR. It counts as in vivo, rat. The following applies: 2.56 nmol/kg/day i.p. for 4 days, n = 4-5. The method, then:
as §1, §2

Data set [12] relates to hepatic Cyp2d2 mRNA. The data set is described as follows: Hepatic mRNA expression by qPCR. It counts as in vivo, rat. To be noted: 2.56 nmol/kg/day i.p. for 4 days, n = 4-5. The method, then:
as §1, §2

Data set [13] can be described thus: Serum chemistry for liver function after 1,25(OH)2D3 treatment. It counts as in vivo, rat. To be noted: fifth day after 2.56 nmol/kg/day i.p. for 4 days, n = 3. The method, then:
Male Sprague-Dawley (SD) rats (8 weeks, 260–280 g) were purchased from Nara Biotech Co. (Seoul, Korea). Animals were maintained in cages under controlled conditions under a 12-h dark/light cycle with free access to food and tap water, acclimated for at least five days in the laboratory before experiments, and allocated to a control group or 1,25(OH)2D3-treated group. The 1,25(OH)2D3 dosing solution was prepared by diluting 1,25(OH)2D3 in ethanol with 5 mL of corn oil (2.56 nmol/mL of final concentration). The dosing solution for the control group was prepared but the 1,25(OH)2D3 was omitted. The dosing solutions were administered intraperitoneally to rats at a dose of 1 mL/kg/day (2.56 nmol/kg/day as 1,25(OH)2D3) over four consecutive days. On the fifth day, rats were used for pharmacokinetic study.
Rat serum was obtained from whole blood on the fifth day after the 1,25(OH)2D3 treatment. The assay of total protein, albumin, serum glutamic oxaloacetic transaminase (sGOT), and serum glutamic pyruvic transaminase (sGPT) was performed by Green Cross Reference Laboratory (Seoul, Korea).

Data set [14] concerns liver tissue. The data set is described as follows: Liver histology (H&E) after 1,25(OH)2D3 treatment. It counts as in vivo, rat. To be noted: H&E sections after four days of treatment. The method, then: as §1
Data set [15] relates to hepatic Cyp2c11 protein. The experiment in a line: Hepatic protein expression by Western blotting. To be noted: 2.56 nmol/kg/day i.p. for 4 days, n = 5, p = 0.0001. In kind it is in vivo, rat. The method, then: (§3) (Seoul, Korea). […] On the fifth day, rats were used for pharmacokinetic study. For protein extraction, the rat liver tissues were homogenized in RIPA buffer (#89900, ThermoFisher Scientific, Waltham, MA, USA) with protease/phosphatase inhibitors using a Diax 900 homogenizer. The homogenized liver samples were incubated in ice for 30 min (for complete lysis) with vortexing every 5 min, and then centrifuged at 14,000× g for 30 min. The supernatants were collected and diluted by 10 times. The protein levels were quantified using the BCA Protein Assay Kit (#23227, ThermoFisher Scientific, Waltham, MA, USA) with bovine serum albumin (BSA) standards. Total protein lysates were subjected to Western blot analysis. Lysates were mixed with 2X Laemmli buffer (Bio-Rad) supplemented with β-mercaptoethanol (Bio-Rad) and boiled for 5 min. […] Immunoblotting was performed with the following antibodies: rabbit CYP2C11 antibody (#ab3571, Abcam, Cambridge, UK), rabbit UGT1A6 antibody (#ab157476, Abcam, Cambridge, UK) and mouse CYP2B1/B2 antibody (#sc-53244, Santa Cruz Biotechnology, Dallas, TX, USA) and HRP-conjugated β-actin mouse antibody (Sigma; cat#A3854; 1:10,000). The following secondary antibodies were used: HRP-conjugated goat antibody to mouse IgG (Genetex; cat# GTX-213111-01, 1:5000), HRP-conjugated goat antibody to rabbit IgG (Genetex; cat# GTX-213110-01; 1:5000). Then, the bands were visualized via chemiluminescence (#34577, ThermoFisher Scientific, Waltham, MA, USA). Densitometric analysis of the bands was performed using ImageJ software (NIH; rsb.info.nih.gov/ij).

Data set [16] concerns hepatic Cyp2b2 protein. The data set is described as follows: Hepatic protein expression by Western blotting. It counts as in vivo, rat. To be noted: 2.56 nmol/kg/day i.p. for 4 days, n = 5, p = 0.1728. As for the experimental part: as §3
Data set [17] deals with hepatic Cyp2b1 protein. The experiment in a line: Hepatic protein expression by Western blotting. To be noted: 2.56 nmol/kg/day i.p. for 4 days, n = 5, p = 0.0006. It counts as in vivo, rat. The method, then:
as §3

Substrate in data set [18]: CC(NC(C)(C)C)C(=O)c1cccc(Cl)c1
Substrate in data set [19]: CCCCNC(=O)NS(=O)(=O)c1ccc(C)cc1

`C=C1/C(=C\C=C2/CCC[C@]3(C)[C@@H]([C@H](C)CCCC(C)(C)O)CC[C@@H]23)C[C@@H](O)C[C@@H]1O` [1,25(OH)2D3, 1α,25-dihydroxyvitamin D3]: the “Hepatic Ugt1a6 protein expression vs control rats” value in data set [1] is “remained unchanged”. Moreover, the “mRNA expression of hepatic Ugt1a7 vs control rats” value in data set [2] was “no significant differences”. Also, the “mRNA expression of hepatic Ugt1a6 vs control rats” value in data set [3] was “significantly lower”. Moreover, the “mRNA expression of hepatic Ugt2b1 vs control rats” value in data set [4] is listed as “no significant differences”. Also, in data set [5], the “mRNA expression of hepatic Ugt2b3 vs control rats” value is on record as “no significant differences”. The “mRNA expression of hepatic Cyp2c6 vs control rats” value in [6] is listed as “no significant differences”. The “mRNA expression of hepatic Ugt1a8 vs control rats” value in data set [7] was “no significant differences”. In data set [8], the “mRNA expression of hepatic Cyp2c11 vs control rats” value was “significantly lower”. Moreover, in [9], the “mRNA expression of hepatic Cyp1a2 vs control rats” value is listed as “no significant differences”. The “mRNA expression of hepatic Cyp2b1 vs control rats” value in data set [10] was “significantly lower”. The “mRNA expression of hepatic Ugt1a1 vs control rats” value in data set [11] is on record as “no significant differences”. The “mRNA expression of hepatic Cyp2d2 vs control rats” value in [12] was “no significant differences”. In data set [13], this molecule showed an Albumin of 3.97 ± 0.15 g/dL, a Total protein of 5.73 ± 0.25 g/dL, a sGOT of 158 ± 35 IU/L and a sGPT of 22.7 ± 3.2 IU/L. Further, the “Damage to liver tissue (histology)” value in [14] is recorded as “no apparent evidence of damage to liver tissue”. In data set [15], the “Hepatic Cyp2c11 protein level vs control rats” value is recorded as “significantly lower”. Also, the “Hepatic Cyp2b2 protein expression vs control rats” value in data set [16] is given as “lower, but this difference is not significant”. Further, the “Hepatic Cyp2b1 protein expression vs control rats” value in data set [17] was “significantly decreased”.

B1: Cyp2b1 (Rattus norvegicus) (protein)
chain: MEPTILLLLALLVGFLLLLVRGHPKSRGNFPPGPRPLPLLGNLLQLDRGGLLNSFMQLREKYGDVFTVHLGPRPVVMLCGTDTIKEALVGQAEDFSGRGTIAVIEPIFKEYGVIFANGERWKALRRFSLATMRDFGMGKRSVEERIQEEAQCLVEELRKSQGAPLDPTFLFQCITANIICSIVFGERFDYTDRQFLRLLELFYRTFSLLSSFSSQVFEFFSGFLKYFPGAHRQISKNLQEILDYIGHIVEKHRATLDPSAPRDFIDTYLLRMEKEKSNHHTEFHHENLMISLLSLFFAGTETSSTTLRYGFLLMLKYPHVAEKVQKEIDQVIGSHRLPTLDDRSKMPYTDAVIHEIQRFSDLVPIGVPHRVTKDTMFRGYLLPKNTEVYPILSSALHDPQYFDHPDSFNPEHFLDANGALKKSEAFMPFSTGKRICLGEGIARNELFLFFTTILQNFSVSSHLAPKDIDLTPKESGIGKIPPTYQICFSAR
Turning to B1, in data set [18], the Km worked out at 171.70 ± 39.46 µM and the Vmax is 35.20 ± 6.62 pmol/min/mg protein.

B2: Cyp2c11 (Rattus norvegicus) (protein)
chain: MDPVLVLVLTLSSLLLLSLWRQSFGRGKLPPGPTPLPIIGNTLQIYMKDIGQSIKKFSKVYGPIFTLYLGMKPFVVLHGYEAVKEALVDLGEEFSGRGSFPVSERVNKGLGVIFSNGMQWKEIRRFSIMTLRTFGMGKRTIEDRIQEEAQCLVEELRKSKGAPFDPTFILGCAPCNVICSIIFQNRFDYKDPTFLNLMHRFNENFRLFSSPWLQVCNTFPAIIDYFPGSHNQVLKNFFYIKNYVLEKVKEHQESLDKDNPRDFIDCFLNKMEQEKHNPQSEFTLESLVATVTDMFGAGTETTSTTLRYGLLLLLKHVDVTAKVQEEIERVIGRNRSPCMKDRSQMPYTDAVVHEIQRYIDLVPTNLPHLVTRDIKFRNYFIPKGTNVIVSLSSILHDDKEFPNPEKFDPGHFLDERGNFKKSDYFMPFSAGKRICAGEALARTELFLFFTTILQNFNLKSLVDVKDIDTTPAISGFGHLPPFYEACFIPVQRADSLSSHL
B2: in [19], the Km was found to be 232.83 ± 51.33 µM and the Vmax was 683.37 ± 94.05 pmol/min/mg protein.

Source of the values: PMC7700423, “Differential Effects of 1α,25-Dihydroxyvitamin D3 on the Expressions and Functions of Hepatic CYP and UGT Enzymes and Its Pharmacokinetic Consequences In Vivo” (Pharmaceutics, 2020).
